# Measured values reported in patent US6322532A, “Sonophoresis method and apparatus” (3M Innovative Properties Company, priority 1999, dated 2001).
# Assay: Franz diffusion cell permeation of salicylic acid across cadaver skin with/without flexure mode sonophoresis transducer
# Set-up: species or system human
# Procedure: A similar experiment to that described in Example 1 was carried out using salicylic acid. […] About 20 ml donor solution (ppb) with excess (beyond solubility levels) of salicylic acid was added to the upper portion of the Franz cells atop the cadaver skin.
smiles,measurement,setting,value
O=C(O)c1ccccc1O [salicylic acid],average sonophoretic drug flux,"active cells, about 2 W/cm^2, about 27 kHz, about 200 V (rms), continuous duty cycle, about 7 cm^2 cadaver skin, first few hours",about 700 micrograms/cm^2 /hr
same,average passive drug flux,"four passive cells, no sonophoresis transducer, 2 cm^2 cadaver skin, 10 ml receptor fluid, 5 hr experiment",about 200 micrograms/cm^2 /hr
